Patent publication US20260159474A1, “Aminoindane Compounds and Compositions and Methods of Their Therapeutic Use” (Solvonis Therapeutics Ireland Holdings Limited, priority 2021, published 2026)

Legend:
[1] = tested on: extracellular dopamine (DA) in the nucleus accumbens (NAcc); experiment: In vivo microdialysis in rat nucleus accumbens, dopamine; set-up: species or system Sprague Dawley rats; details: 7 mg/kg I.P.
Method: (§1) Methods and Procedure: This study was conducted in compliance with previously described procedures to assure data integrity, adherence to GLP regulations, and standard preclinical study and surgery procedures. The in vivo microdialysis technique was applied to measure the over-time variations of DA, 5-HT, and NE extracellular (EC) concentrations in conscious, freely-moving Sprague Dawley rats. Levels of the neurotransmitters in microdialysis samples were determined using LC-MS/MS analysis. The experiment was also conducted with MDMA for comparative purposes.
(§2) As it relates to cannula implantation, the rats were anesthetized with isoflurane 4% in oxygen (2-2.5 L/min), then the isoflurane concentration 2-2.5% was maintained via a nose cone adapted to the stereotaxic apparatus. The rats were treated with meloxicam (0.2 mg/kg, subcutaneously, sc; Meloxidolor) and amoxicilline (150 mg/kg, sc, Betamox LA). The skull was then shaved and disinfected. Rats were then placed in a stereotaxic apparatus for small animals. One vertical guide cannula was inserted through a 1 mm hole drilled on the exposed skull. Coordinates, with respect to the bregma to target specific brain areas, followed indications from stereotaxic atlas of the rat brain. Specifically a guide cannula (MAB 4.12.IC, Agn Tho's AB, Lidinga, Sweden) was inserted in the NAcc (anteroposterior+1.6; lateral −1.6; dorsoventral −6.0). The guide cannula was then secured with dental cement and 2-4 screws. At the end of the surgery the animal was isolated in a single cage during recovery, for a period of at least one week, during which animal health conditions were checked twice daily and the weight recorded twice a week. Animals continued to be housed singly throughout the experiment. One day before the experiment the cannula stylet was removed and a microdialysis probe with a dialyzing length of 2 mm (MAB 4.12.2 Cu, Agn Tho's AB, Lidingo, Sweden) was inserted. Probes can be re-used 2 times for 2 experimental sessions after appropriate cleaning with fresh milliQ water.
(§3) Post-surgery, the rats were maintained in a heating chamber prior to waking up in order to avoid hypothermia that could be caused by anaesthesia. 5 mL of physiologic solution was subcutaneously administered immediately after surgery, and once/day for 2-3 days, if signs of dehydration are noticed. Meloxicam (Meloxidolor) 0.2 mg/kg was again administered subcutaneously the day after surgery as well as after 48 h after surgery together with Amoxicilline Long Acting (Betamox LA) 150 mg/kg. Health status and body weight was checked every day during the first week.
(§4) The animals were treated with the therapeutic compounds, and MDMA, or their vehicle (saline) according to a Latin square design over 5 separate experimental days (one day/week). The treatments were administered in a volume of 1 mL/kg intraperitoneally.
(§5) On the day of the experiment, each animal was taken into the laboratory in its home cage. Inlet tubing of the probe was attached to a dual quartz-lined two channel liquid swivel mounted on a low mass spring counterbalance arm which, in turn, was connected to a gas-tight syringe on a microinfusion pump. […] An equilibration period of about two hours of perfusion was allowed before collecting samples. Following the equilibration period, 4 basal samples were collected for each experimental animal followed by further 10 post-treatment samples. Samples were collected every 20 minutes (up to 3 hours and 20 minutes post-treatment) by means of a refrigerated auto-sampler (Univentor 820 Microsampler, AgnTho's, Sweden) maintained at +8 “C. At the end of all experimental sessions, 2 μL of 0.1% methylene blue solution was injected through the microdialysis probe, animals were euthanized, and their brains removed to confirm the correct probe-position.
(§6) As mentioned, the concentration of DA, 5-HT and NE in CSF samples were determined using an optimized method based on LC-MS/MS analysis. […]

[2] = tested on: extracellular noradrenaline (NE) in the nucleus accumbens (NAcc); experiment: In vivo microdialysis in rat nucleus accumbens, norepinephrine; set-up: species or system Sprague Dawley rats; details: 7 mg/kg I.P.; for time of peak NE level / peak NE level: rat NAcc microdialysis; for peak NE level: baseline = 100%; for Norepinephrine (NE) level (% from baseline): rat NAcc
Method: as §1, §2, §3, §4, §5, §6

Structure (SMILES) | Dopamine (DA) level (% from baseline) ([1]; 0 min (basal sample)) [%] | Dopamine (DA) level (% from baseline) ([1]; 20 min post-admin) [%] | Dopamine (DA) level (% from baseline) ([1]; 40 min post-admin) [%] | Dopamine (DA) level (% from baseline) ([1]; 60 min post-admin) [%] | Dopamine (DA) level (% from baseline) ([1]; 80 min post-admin) [%] | Dopamine (DA) level (% from baseline) ([1]; 100 min post-admin) [%] | Dopamine (DA) level (% from baseline) ([1]; 120 min post-admin) [%] | Dopamine (DA) level (% from baseline) ([1]; 140 min post-admin) [%] | Dopamine (DA) level (% from baseline) ([1]; 160 min post-admin) [%] | Dopamine (DA) level (% from baseline) ([1]; 180 min post-admin) [%] | Dopamine (DA) level (% from baseline) ([1]; 200 min post-admin) [%] | Dopamine (DA) level (% from baseline) ([1]; −20 min (basal sample)) [%] | time of peak NE level [2] [min] | peak NE level [2] [%] | Norepinephrine (NE) level (% from baseline) ([2]; 0 min (basal sample)) [%] | Norepinephrine (NE) level (% from baseline) ([2]; 20 min post-admin) [%] | Norepinephrine (NE) level (% from baseline) ([2]; 40 min post-admin) [%] | Norepinephrine (NE) level (% from baseline) ([2]; 60 min post-admin) [%] | Norepinephrine (NE) level (% from baseline) ([2]; 80 min post-admin) [%] | Norepinephrine (NE) level (% from baseline) ([2]; 100 min post-admin) [%] | other results
COc1ccc2c(c1)CC(N)C2 (stereo not drawn) [MEAI, 5-methoxy-2-aminoindane] | 96 | 95 | 197 | 187 | 154 | 141 | 130 | 131 | 137 | 144 | 127 | 104 | 40 | 366 | 97 | 132 | 366 | 295 | 208 | 194 | Norepinephrine (NE) level (% from baseline) ([2]; 120 min post-admin): 187%; Norepinephrine (NE) level (% from baseline) ([2]; 140 min post-admin): 167%; Norepinephrine (NE) level (% from baseline) ([2]; 160 min post-admin): 140%; Norepinephrine (NE) level (% from baseline) ([2]; 180 min post-admin): 149%; Norepinephrine (NE) level (% from baseline) ([2]; 200 min post-admin): 133%; Norepinephrine (NE) level (% from baseline) ([2]; −20 min (basal sample)): 103%
CNC(C)Cc1ccc2c(c1)OCO2 (stereo not drawn) [MDMA] | 93 | 113 | 381 | 520 | 448 | 399 | 396 | 357 | 324 | 293 | 278 | 107 | 40 | 473 | 100 | 113 | 473 | 457 | 375 | 348 | Norepinephrine (NE) level (% from baseline) ([2]; 120 min post-admin): 350%; Norepinephrine (NE) level (% from baseline) ([2]; 140 min post-admin): 320%; Norepinephrine (NE) level (% from baseline) ([2]; 160 min post-admin): 295%; Norepinephrine (NE) level (% from baseline) ([2]; 180 min post-admin): 275%; Norepinephrine (NE) level (% from baseline) ([2]; 200 min post-admin): 255%; Norepinephrine (NE) level (% from baseline) ([2]; −20 min (basal sample)): 100%
COC(=O)c1ccc2c(c1)CC(N)C2 (stereo not drawn) [CMP-405, 2-aminoindane-5-methylcarboxylate] | 99 | 134 | 122 | 139 | 117 | 123 | 113 | 99 | 98 | 96 | 107 | 101 | 60 | 188 | 101 | 106 | 167 | 188 | 147 | 136 | Norepinephrine (NE) level (% from baseline) ([2]; 120 min post-admin): 125%; Norepinephrine (NE) level (% from baseline) ([2]; 140 min post-admin): 107%; Norepinephrine (NE) level (% from baseline) ([2]; 160 min post-admin): 122%; Norepinephrine (NE) level (% from baseline) ([2]; 180 min post-admin): 105%; Norepinephrine (NE) level (% from baseline) ([2]; 200 min post-admin): 106%; Norepinephrine (NE) level (% from baseline) ([2]; −20 min (basal sample)): 99%
